Experiment [1] has as its system Trypanosoma cruzi. In words: Antitrypanosomal activity against epimastigote forms of Trypanosoma cruzi Y assessed as growth inhibition. The format is functional, organism-based.
Experiment [2] has as its system Trypanosoma brucei. In words: Antitrypanosomal activity against Trypanosoma brucei assessed as growth inhibition. The format is functional, organism-based.
The nature of experiment [3]: Selectivity ratio for human triosephosphate isomerase to Trypanosoma cruzi triosephosphate isomerase.
Experiment [4] deals with Cruzipain (Trypanosoma cruzi, UniProt P25779). In words: Inhibition of Trypanosoma cruzi cruzain.
Sequence of Cruzipain (P25779 whole entry): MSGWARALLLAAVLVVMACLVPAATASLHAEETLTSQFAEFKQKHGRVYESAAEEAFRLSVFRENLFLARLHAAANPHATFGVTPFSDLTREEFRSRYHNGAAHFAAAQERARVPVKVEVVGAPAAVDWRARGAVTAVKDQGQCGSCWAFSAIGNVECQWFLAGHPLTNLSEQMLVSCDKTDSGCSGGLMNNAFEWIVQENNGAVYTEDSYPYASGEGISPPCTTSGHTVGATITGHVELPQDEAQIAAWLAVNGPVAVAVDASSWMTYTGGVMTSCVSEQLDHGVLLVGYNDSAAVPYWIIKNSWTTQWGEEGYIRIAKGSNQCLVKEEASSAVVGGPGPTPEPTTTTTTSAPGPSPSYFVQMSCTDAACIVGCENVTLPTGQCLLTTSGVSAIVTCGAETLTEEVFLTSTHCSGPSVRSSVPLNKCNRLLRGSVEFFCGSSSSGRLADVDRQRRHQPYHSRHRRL
The nature of experiment [5]: Inhibition of Trypanosoma brucei PTR1. As to conditions: read-out: Ki(app).
For experiment [6], the system named is Trypanosoma brucei rhodesiense. Kind of experiment: Antitrypanosomal activity against Trypanosoma brucei rhodesiense assessed as growth inhibition. The class given is functional. As to conditions: read-out: ED50 (the source's name).
The test system of experiment [7] is Trypanosoma brucei. Kind of experiment: Antitrypanosomal activity against bloodstream forms of Trypanosoma brucei assessed as growth inhibition. The format is functional, organism-based.
Experiment [8] concerns Trypanosoma cruzi. Kind of experiment: Antitrypanosomal activity against Trypanosoma cruzi assessed as growth inhibition. The format is functional. As to conditions: read-out: ED50 (the source's name).
The target of experiment [9] is Triosephosphate isomerase, glycosomal (Trypanosoma cruzi) (UniProt P52270). In words: Inhibition of Trypanosoma cruzi triosephosphate isomerase at 50 uM.
Sequence of Triosephosphate isomerase, glycosomal (Trypanosoma cruzi) (P52270 whole entry): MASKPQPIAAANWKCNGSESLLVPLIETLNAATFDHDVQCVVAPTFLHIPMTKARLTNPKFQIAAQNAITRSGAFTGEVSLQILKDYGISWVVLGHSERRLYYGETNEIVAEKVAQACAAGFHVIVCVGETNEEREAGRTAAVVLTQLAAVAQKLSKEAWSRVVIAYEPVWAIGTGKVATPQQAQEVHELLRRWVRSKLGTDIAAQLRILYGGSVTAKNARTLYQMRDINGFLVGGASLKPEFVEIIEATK
Experiment [10] concerns Trypanosoma brucei. In words: Inhibition of Trypanosoma brucei triosephosphate isomerase at 50 uM.

Some results are limits rather than exact numbers.

As for `CCC1SC(N/N=C/CCSc2ccccc2)=NC1=O` (configuration not stated), the IC50 in experiment [1] came out at 300 nM.

Consider `COc1ccccc1C(=O)c1cnc(NC2CCN(C(=O)Nc3ccccc3)CC2)nc1N`, for which the half-maximal inhibitory concentration (IC50) in experiment [2] came out at 70 nM. For `Cc1ccc2nc(-c3ccc(N)cc3)sc2c1`, in experiment [3], the Selectivity ratio was found to be 200. In the case of `CC1SC(N/N=C/CCCSc2ccccc2)=NC1=O` (configuration not stated), in [4], the IC50 was 400 nM. With `Nc1nc2cccc(-c3ccccc3)c2n1Cc1ccc(Cl)c(Cl)c1`, the Ki in experiment [5] was 7 nM. In the case of `NC(=S)N/N=C(\C=C\c1ccccc1)c1ccccc1`, the EC50 in [6] amounted to 70 nM. For the molecule `CCCOc1cccc2nc(N)n(Cc3ccc(Cl)c(Cl)c3)c12`, the Ki in [5] was determined as 47 nM. For the same molecule, the EC50 in [7] was 10000 nM. `CCCC/C(=N\NC(N)=S)c1ccccc1`: the EC50 in experiment [8] stood at 3000 nM. Regarding `Cc1ccc(SCC/C=N/NC2=NC(=O)C(C)S2)cc1` (configuration not stated), the 50% inhibitory concentration (IC50) in experiment [4] amounted to 20400 nM. In the case of `Nc1ccc(-c2nc3ccc(-c4ccc5nc(N)sc5c4)cc3s2)cc1`, the inhibition in experiment [9] and in experiment [10] was > 90% throughout.

These data come from ChEMBL document CHEMBL3352665, “Trends in research of antitrypanosomal agents among synthetic heterocycles” (Eur J Med Chem, 2014).
